From patent US20230416256A1, “SMALL MOLECULE INHIBITORS OF NF-kB INDUCING KINASE” (Janssen Pharmaceutica NV, priority 2020, published 2023)
Where two headings read alike, the source gives them in different places.

Columns and labels:
[1] = molecular target: recombinant human NF-kappaB-inducing kinase (NIK/MAP3K14) (Homo sapiens, UniProt Q99558); experiment: Inhibition of auto-phosphorylation of recombinant human NIK/MAP3K14 activity (AlphaScreen); assay type: biochemical; details: GST-tagged NIK/MAP3K14 1 nM, 5 μM ATP, 2 h at 25° C.; average of values obtained
Sequence of recombinant human NF-kappaB-inducing kinase (NIK/MAP3K14) (Q99558 whole entry): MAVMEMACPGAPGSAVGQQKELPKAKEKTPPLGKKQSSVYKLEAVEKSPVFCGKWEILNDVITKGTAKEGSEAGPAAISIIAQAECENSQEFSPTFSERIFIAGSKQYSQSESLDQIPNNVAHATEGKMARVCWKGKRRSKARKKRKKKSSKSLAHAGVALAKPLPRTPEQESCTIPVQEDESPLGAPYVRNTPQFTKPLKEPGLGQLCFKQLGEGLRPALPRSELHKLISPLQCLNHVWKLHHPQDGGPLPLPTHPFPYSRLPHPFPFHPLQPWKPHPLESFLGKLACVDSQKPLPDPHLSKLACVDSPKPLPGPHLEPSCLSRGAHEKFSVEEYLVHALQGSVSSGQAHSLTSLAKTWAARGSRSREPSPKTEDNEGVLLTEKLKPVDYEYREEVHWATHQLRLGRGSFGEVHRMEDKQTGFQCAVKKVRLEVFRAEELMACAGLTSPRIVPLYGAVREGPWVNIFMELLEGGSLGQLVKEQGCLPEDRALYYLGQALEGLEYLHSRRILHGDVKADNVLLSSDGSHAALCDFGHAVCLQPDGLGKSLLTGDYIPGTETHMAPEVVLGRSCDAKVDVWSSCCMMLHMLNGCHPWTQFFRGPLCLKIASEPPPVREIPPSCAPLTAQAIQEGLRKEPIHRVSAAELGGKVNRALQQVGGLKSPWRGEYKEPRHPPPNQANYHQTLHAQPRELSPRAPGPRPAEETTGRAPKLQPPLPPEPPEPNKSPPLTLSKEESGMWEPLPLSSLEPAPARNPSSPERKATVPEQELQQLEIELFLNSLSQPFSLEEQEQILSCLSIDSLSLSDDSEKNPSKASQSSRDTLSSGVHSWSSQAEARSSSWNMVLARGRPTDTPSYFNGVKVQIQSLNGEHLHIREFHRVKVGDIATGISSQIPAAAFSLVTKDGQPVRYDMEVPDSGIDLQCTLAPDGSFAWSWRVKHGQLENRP
Method: Inhibition of Auto-Phosphorylation of Recombinant Human NF-kappaB-Inducing Kinase (NIK/MAP3K14) Activity (AlphaScreen®)
NIK/MAP3K14 auto-phosphorylation activity was measured using the AlphaScreen® (αscreen) format (Perkin Elmer). All compounds tested were dissolved in dimethyl sulfoxide (DMSO) and further dilutions were made in assay buffer. The final DMSO concentration was 0.7% (v/v) in assays. The assay buffer was 50 mM Tris pH 7.5 containing 1 mM EGTA (ethylene glycol tetraacetic acid), 1 mM DTT (dithiothreitol), 0.1 mM Na3VO4, 5 mM MgCl2, and 0.01% Tween® 20. The assays were carried out in 384 well Proxiplates (Perkin Elmer). The incubations consisted of the compound, 5 μM Adenosine-5′-triphosphate (ATP), and 1 nM NIK/MAP3K14. Incubations were initiated by the addition of GST-tagged NIK/MAP3K14 enzyme, carried out for 2 h at 25° C. and terminated by addition of stop buffer containing anti-phospho-IKK Ser176/180 antibody. Protein A Acceptor and Glutathione-Donor beads were added before reading using an EnVision Multilabel Plate Reader (Perkin Elmer). The signal obtained in the wells was normalized using high (full enzyme activity, 0.7% DMSO) and low controls (no enzyme activity, 0.7% DMSO, no ATP). IC50's were determined by fitting a sigmoidal curve to % inhibition of control versus Log10 compound concentration.

[2] = test system: p-IKKα levels in L363 (NIK translocated multiple myeloma) cells; experiment: Effect of compounds on p-IKKα levels in L363 cells (AlphaLISA SureFire Ultra); assay type: cell-based, human; details: 10 μM MG132, 6 h, average of values obtained, read-out: Assay 2 IC50
Method: Effect of Compounds on p-IKKα Levels in L363 (NIK Translocated Multiple Myeloma) Cells
All compounds tested were dissolved and serially diluted in DMSO, 1:3 dilution for 11 points in an Echo compatible plate. 100% DMSO was added to columns 12 and 24 of the plate to serve as high and low signal controls. This compound plate was used to spot 20 nL of compound or DMSO into a Greiner 384 well TC plate (781080). The final DMSO concentration was 0.3% (v/v) in cell assays. Human L363 cells (ATCC) were cultured in RPMI1640 medium supplemented with GlutaMax, non-essential amino acids, sodium pyruvate and 10% fetal bovine serum. Cells were routinely maintained at densities of […]-2×10^6 cells per mL at 37° C. in a humidified 5% CO2 atmosphere incubator. Cells were passaged twice a week splitting back to obtain the low density. The day before the assay, cells were washed twice in HBSS (Hank's Balanced Salt Solution), resuspended in Dulbecco's Modified Eagle Medium (DMEM)+0.5% IgG and protease free BSA (Jackson Immuno Research Laboratories), +/−250 ng/ml recombinant human B-cell activating factor (BAFF/BLyS/TNFSF13B) and incubated overnight at 37° C. in a humidified 5% CO2 atmosphere (bulk stimulation with or without BAFF). The next day, the cell concentration was adjusted to 1×10^7 cells/ml in DMEM+/−250 ng/ml BAFF+/10 μM MG132 and plated at […] into compound or DMSO spotted 384 well TC plates. Seeded cells were incubated at 37° C. in a humidified 5% CO2 atmosphere for 6 h. After 6 h, the plates were removed from the incubator and cell lysis was achieved by the addition of 2.5 μl 5×lysis buffer containing protease and phosphatase inhibitors, followed by shaking on a plate shaker at room temperature for 15 min. At the end of this incubation, lysed cells were sequentially treated and incubated with acceptor and donor bead mixes according to the manufacturer's protocol for a 1 plate/2-incubation suspension cell assay (AlphaLISA SureFire Ultra p-IKKa (Ser 176/180) Assay Kit (Perkin Elmer). Plates were read using an EnVision Multilabel Plate Reader (Perkin Elmer). Within an experiment, a concentration response curve for each compound was run in duplicate. The signal obtained in the test wells was normalized using high signal (BAFF stimulated cells, DMSO, MG132) and low signal (unstimulated cells, DMSO) controls. To determine the IC50, a sigmoidal curve was fitted to the plot of % inhibition versus Log10 compound concentration.

[3] = Homo sapiens, L-363, 6 h, 250 ng/ml BAFF stimulated
[4] = Homo sapiens, L-363, 250 ng/ml BAFF stimulated

SMILES | IC50 [1] [nM] | IC50 [2, 3] [nM] | IC50 ([2]; 250 ng/ml BAFF stimulated) [nM] | IC50 [2, 4] [nM]
O[C@]1(c2cccc(-c3csc(-c4c[nH]c5nccnc45)n3)c2)C=Cn2ccnc21 [Example 14, (S)-7-(3-(2-(5H-Pyrrolo[2,3-b]pyrazin-7-yl)thiazol-4-yl)phenyl)-7H-pyrrolo[1,2-a]imidazol-7-ol] | > 500 | > 500 |  | 
O[C@@]1(c2cccc(-c3nc(-c4c[nH]c5ncccc45)cs3)c2)CCn2ccnc21 [Example 15, (R)-7-(3-(4-(1H-Pyrrolo[2,3-b]pyridin-3-yl)thiazol-2-yl)phenyl)-6,7-dihydro-5H-pyrrolo[1,2-a]imidazol-7-ol] | ≤ 100 | 100 to 500 |  | 
O[C@@]1(c2cccc(-c3csc(-c4c[nH]c5ncccc45)n3)c2)COc2cccnc21 [Example 16, (R)-3-(3-(2-(1H-Pyrrolo[2,3-b]pyridin-3-yl)thiazol-4-yl)phenyl)-2,3-dihydrofuro[3,2-b]pyridin-3-ol] | ≤ 100 |  | 100 to 500 | 
O[C@@]1(c2cccc(-c3csc(-c4c[nH]c5nccnc45)n3)c2)COc2cccnc21 [Example 17, (R)-3-(3-(2-(5H-Pyrrolo[2,3-b]pyrazin-7-yl)thiazol-4-yl)phenyl)-2,3-dihydrofuro[3,2-b]pyridin-3-ol] | ≤ 100 |  | ≤ 100 | 
[2H]c1[nH]c2nccnc2c1-c1nc(-c2cccc([C@@]3(O)CCn4ccnc43)c2)cs1 [Example 18, (S)-7-(3-(2-(5H-Pyrrolo[2,3-b]pyrazin-7-yl-6-d)thiazol-4-yl)phenyl)-6,7-dihydro-5H-pyrrolo[1,2-a]imidazol-7-ol] | > 500 | > 500 |  | 
[2H]c1cnc2[nH]cc(-c3nc(-c4cccc([C@@]5(O)CCn6ccnc65)c4)cs3)c2n1 [Example 19, (S)-7-(3-(2-(5H-Pyrrolo[2,3-b]pyrazin-7-yl-2-d)thiazol-4-yl)phenyl)-6,7-dihydro-5H-pyrrolo[1,2-a]imidazol-7-ol] | > 500 | > 500 |  | 
O[C@@]1(c2cccc(-c3csc(-c4c[nH]c5ncncc45)n3)c2)CCn2ccnc21 [Example 20, (R)-7-(3-(2-(7H-Pyrrolo[2,3-d]pyrimidin-5-yl)thiazol-4-yl)phenyl)-6,7-dihydro-5H-pyrrolo[1,2-a]imidazol-7-ol] | ≤ 100 | ≤ 100 |  | 
O[C@]1(c2cccc(-c3csc(-c4c[nH]c5ncncc45)n3)c2)CCn2ccnc21 [Example 21, (S)-7-(3-(2-(7H-Pyrrolo[2,3-d]pyrimidin-5-yl)thiazol-4-yl)phenyl)-6,7-dihydro-5H-pyrrolo[1,2-a]imidazol-7-ol] | 100 to 500 | > 500 |  | 
O[C@@]1(c2cccc(-c3csc(-c4c[nH]c5ncc(F)cc45)n3)c2)CCn2ccnc21 [Example 24, (R)-7-(3-(2-(5-Fluoro-1H-pyrrolo[2,3-b]pyridin-3-yl)thiazol-4-yl)phenyl)-6,7-dihydro-5H-pyrrolo[1,2-a]imidazol-7-ol] | ≤ 100 | ≤ 100 |  | 
O[C@@]1(c2cccc(-c3csc(-c4c[nH]c5ncc(C(F)(F)F)cc45)n3)c2)CCn2ccnc21 [Example 25, (R)-7-(3-(2-(5-(Trifluoromethyl)-1H-pyrrolo[2,3-b]pyridin-3-yl)thiazol-4-yl)phenyl)-6,7-dihydro-5H-pyrrolo[1,2-a]imidazol-7-ol] | ≤ 100 | 100 to 500 |  | 
N#Cc1cnc2[nH]cc(-c3nc(-c4cccc([C@]5(O)CCn6ccnc65)c4)cs3)c2c1 [Example 26, (R)-3-(4-(3-(7-Hydroxy-6,7-dihydro-5H-pyrrolo[1,2-a]imidazol-7-yl)phenyl)thiazol-2-yl)-1H-pyrrolo[2,3-b]pyridine-5-carbonitrile] | ≤ 100 | ≤ 100 |  | 
O[C@@]1(c2cccc(-c3csc(-c4c[nH]c5ncc(Cl)cc45)n3)c2)CCn2ccnc21 [Example 27, (R)-7-(3-(2-(5-Chloro-1H-pyrrolo[2,3-b]pyridin-3-yl)thiazol-4-yl)phenyl)-6,7-dihydro-5H-pyrrolo[1,2-a]imidazol-7-ol] | ≤ 100 | ≤ 100 |  | 
CS(=O)(=O)c1cnc2[nH]cc(-c3nc(-c4cccc([C@]5(O)CCn6ccnc65)c4)cs3)c2c1 [Example 28, (R)-7-(3-(2-(5-(Methylsulfonyl)-1H-pyrrolo[2,3-b]pyridin-3-yl)thiazol-4-yl)phenyl)-6,7-dihydro-5H-pyrrolo[1,2-a]imidazol-7-ol] | ≤ 100 | 100 to 500 |  | 
O[C@@]1(c2cccc(-c3csc(-c4c[nH]c5nccc(F)c45)n3)c2)CCn2ccnc21 [Example 29, (R)-7-(3-(2-(4-Fluoro-1H-pyrrolo[2,3-b]pyridin-3-yl)thiazol-4-yl)phenyl)-6,7-dihydro-5H-pyrrolo[1,2-a]imidazol-7-ol] | ≤ 100 | ≤ 100 |  | 
O[C@@]1(c2cccc(-c3coc(-c4c[nH]c5ncccc45)c3)c2)CCn2ccnc21 [Example 30, (R)-7-(3-(5-(1H-Pyrrolo[2,3-b]pyridin-3-yl)furan-3-yl)phenyl)-6,7-dihydro-5H-pyrrolo[1,2-a]imidazol-7-ol] | ≤ 100 | > 500 |  | 
O[C@@]1(c2cccc(-c3csc(-c4c[nH]c5nccnc45)n3)c2)CCn2ccnc21 [Example 41, (R)-7-(3-(2-(5H-Pyrrolo[2,3-b]pyrazin-7-yl)thiazol-4-yl)phenyl)-6,7-dihydro-5H-pyrrolo[1,2-a]imidazol-7-ol] | ≤ 100 | ≤ 100 |  | 
O[C@]1(c2cccc(-c3csc(-c4c[nH]c5nccnc45)n3)c2)CCn2ccnc21 [Example 42, (S)-7-(3-(2-(5H-Pyrrolo[2,3-b]pyrazin-7-yl)thiazol-4-yl)phenyl)-6,7-dihydro-5H-pyrrolo[1,2-a]imidazol-7-ol] | 100 to 500 | > 500 |  | 
O=C1N(CC(F)(F)F)CC[C@]1(O)c1cccc(-c2csc(-c3c[nH]c4nccnc34)n2)c1 [Example 43, (S)-3-(3-(2-(5H-Pyrrolo[2,3-b]pyrazin-7-yl)thiazol-4-yl)phenyl)-3-hydroxy-1-(2,2,2-trifluoroethyl)pyrrolidin-2-one] | > 500 |  |  | > 500
O=C1N(CC(F)(F)F)CC[C@@]1(O)c1cccc(-c2csc(-c3c[nH]c4nccnc34)n2)c1 [Example 44, (R)-3-(3-(2-(5H-Pyrrolo[2,3-b]pyrazin-7-yl)thiazol-4-yl)phenyl)-3-hydroxy-1-(2,2,2-trifluoroethyl)pyrrolidin-2-one] | > 500 |  |  | > 500
CN1C[C@@](O)(c2cccc(-c3csc(-c4c[nH]c5nccnc45)n3)c2)C1=O [Example 45, (S)-3-(3-(2-(5H-Pyrrolo[2,3-b]pyrazin-7-yl)thiazol-4-yl)phenyl)-3-hydroxy-1-methylazetidin-2-one] | > 500 |  |  | > 500
CN1C[C@](O)(c2cccc(-c3csc(-c4c[nH]c5nccnc45)n3)c2)C1=O [Example 46, (R)-3-(3-(2-(5H-Pyrrolo[2,3-b]pyrazin-7-yl)thiazol-4-yl)phenyl)-3-hydroxy-1-methylazetidin-2-one] | > 500 |  |  | > 500
